Source: PMC8779485, “Implementation and Comparison of Two Pharmacometric Tools for Model-Based Therapeutic Drug Monitoring and Precision Dosing of Daptomycin” (Pharmaceutics, 2022)

Tests used:
[1] = in vivo; cited from earlier work
Text: However, increasing daptomycin doses raises concerns about safety. It was shown that daptomycin muscular toxicity, as measured by elevation in serum creatinine phosphokinase (CPK), correlated with plasma trough concentration (Cmin).

[2] = Daptomycin TDM in patients with bone and joint infection, Bayesian estimation with parametric model (Dvorchik et al.) in Tucuxi (validation dataset)
Text: (§1) We used two data sets: a learning set used to derive the nonparametric population model of daptomycin and a validation dataset. The learning dataset was described in a previous publication from our group, which focused on the influence of P-gp gene polymorphism on daptomycin PK (n = 81 patients). […] All patients were enrolled in a cohort study after information. This cohort study was subject to a declaration to the local Commission for Data Protection and Liberties (number 17-057) and is registered on ClinicalTrial.gov (number NCT03134521). In addition, patients’ written informed consent was obtained for P-gp genotyping, in accordance with French regulation.
(§2) Blood samples for daptomycin TDM were obtained during hospitalization or follow-up visit at the BJI center. In most patients, TDM was performed on several occasions to control drug exposure throughout therapy. At each occasion, a typical PK profile was obtained, including three plasma samples collected approximately pre-dose (trough or Cmin), 30 min and 5 to 6 h after daptomycin administration. On some occasions, only one or two samples could be obtained. Sampling times were recorded precisely in each patient. Daptomycin plasma concentrations were measured using an HPLC assay with a photodiode array detector. The method was adapted from a previous publication.
As we aimed at comparing our nonparametric model to a reference model for TDM and dose adjustment, we implemented the seminal daptomycin parametric model developed by daptomycin’s manufacturer into the Tucuxi software. Tucuxi is a new software dedicated to the analysis of TDM results and individual dose adjustment (http://www.tucuxi.ch/, accessed 27 December 2021).
The two-compartment reference model from Dvorchik et al. was imported into Tucuxi, including its error model and all its covariates except body temperature, which influenced daptomycin clearance in the original model. This covariate was discarded because it is not measured consistently in all patients in routine, especially in outpatients, and its value may be altered by co-treatment such as acetaminophen. The other covariates were retained, with creatinine clearance and sex influencing daptomycin clearance and body weight influencing both intercompartment clearance and peripheral volume of distribution.
(§3) We used an external dataset from 94 patients who received daptomycin for BJI and had TDM to validate the predictive performance of our nonparametric model in BestDose and that of the parametric model in Tucuxi. In this evaluation, we only used the daptomycin concentrations collected during the first TDM occasion in each patient.
(§4) The dosage history, covariate values, times and values of measured concentrations in each patient were entered into each program. The population model was fit to individual data by using Bayesian regression in both tools. After estimation of Bayesian posterior individual PK parameters, the estimated PK profile of each patient was obtained, including predictions of measured daptomycin concentrations.
(§5) Because daptomycin AUC is an important predictor of its antibacterial effect, we also compared the estimations of individual daily AUC (AUC24h) in the 94 patients provided by BestDose and Tucuxi.

[3] = cited from earlier work
Method: Daptomycin is a cyclic lipopeptide antibiotic with bactericidal activity on Gram-positive bacteria discovered in 1980 [1, 2]. The Food and Drug Administration (FDA) approved its use in 2003 for treating complicated skin and skin structure infections and Staphylococcus aureus bloodstream infections, including those with right-sided infective endocarditis. In those indications, the recommended dosing regimen ranges from 4 to 6 mg/kg. Daptomycin is also used off-label in various indications, including bloodstream infections caused by Gram-positive agents others than S. aureus and bone an ...

[4] = patients who received 6 mg/kg; cited from earlier work
[5] = Daptomycin TDM in patients with bone and joint infection, Bayesian estimation with nonparametric model in BestDose (validation dataset)
Text: as §1, §2
(§6) In our previous work, the final population PK model of daptomycin was built by using a parametric approach (SAEM algorithm in the Monolix software). […] We reanalyzed the original dataset in order to implement a nonparametric model into the BestDose software. The NPAG algorithm embedded into the Pmetrics package for R was used to develop the nonparametric model. […] The error model was based on the assay error pattern. The predictive performance of the final model was assessed by computing the bias and precision of model-based individual predictions (see below). The model was then imported into the Windows version of the BestDose software.
as §3, §4, §5

[6] = Nonparametric population PK model of daptomycin (NPAG, Pmetrics) in the learning dataset
Text: as §1, §2, §6

[7] = learning dataset n = 81, Pmetrics estimation, mean
[8] = learning dataset n = 81, Pmetrics estimation, median

CCCCCCCCCC(=O)N[C@@H](Cc1c[nH]c2ccccc12)C(=O)N[C@H](CC(N)=O)C(=O)N[C@@H](CC(=O)O)C(=O)N[C@@H]1C(=O)NCC(=O)N[C@@H](CCCN)C(=O)N[C@@H](CC(=O)O)C(=O)N[C@H](C)C(=O)N[C@@H](CC(=O)O)C(=O)NCC(=O)N[C@H](CO)C(=O)N[C@@H]([C@H](C)CC(=O)O)C(=O)N[C@@H](CC(=O)c2ccccc2N)C(=O)O[C@@H]1C [daptomycin, Daptomycin]
Upper bound for Cmin target (CPK elevation) [1]: 24300 ng/mL | T1/2 (terminal half-life) ([2]; Tucuxi individual estimate, validation dataset n = 94, mean ± SD): 13.1 ± 4.7 h | AUC24h ([2]; human, in vivo, SD): 893 ± 345 µg·h/mL | CLdap (daptomycin total body clearance) ([2]; human, in vivo, SD): 0.73 ± 0.29 L/h | Dmin (minimum effective dose to attain AUC24h = 666 mg.h/L at steady-state) ([2]; human, in vivo, SD): 6.9 ± 2.8 mg/kg | Predicted concentrations ([2]; human, in vivo, SD): 44.3 ± 44.5 mg/L | V1 ([2]; human, in vivo, SD): 5.9 ± 2.4 L | Average ratio of area under the unbound concentration time-curve in bone over plasma ([3]; 10 patients): 1.08 | Average tissue to plasma concentration ratio, bone ([3]; bone): 14.1% | Average tissue to plasma concentration ratio, synovial fluid ([3]; synovial fluid): 54% | Rate of efficacy target attainment [4]: 40% | T1/2 (terminal half-life) ([5]; BestDose individual estimate, validation dataset n = 94, mean ± SD, SD): 16.8 ± 10.6 h | Proportion of patients with AUC24h < 666 mg.h/L (underexposed) ([5]; human, in vivo): 21.3% | AUC24h ([5]; human, in vivo, 1.3 mg/kg, SD): 975 ± 395 µg·h/mL | CLdap (daptomycin total body clearance) ([5]; human, in vivo, SD): 0.74 ± 0.42 L/h | Cmin ([5]; human, in vivo, SD): 21300 ± 12900 ng/mL | Dmin (minimum effective dose to attain AUC24h = 666 mg.h/L at steady-state) ([5]; human, in vivo, SD): 6.4 ± 2.7 mg/kg | Predicted concentrations ([5]; human, in vivo, SD): 46.6 ± 46.7 mg/L | V1 ([5]; human, in vivo, SD): 7.9 ± 3.5 L | Kpc (transfer rate constant peripheral to central), mean ([6]; in vivo): 0.667 h⁻¹ | Kpc (transfer rate constant peripheral to central), median ([6]; in vivo): 0.449 h⁻¹ | Kcp (transfer rate constant central to peripheral), mean [6, 7]: 0.693 h⁻¹ | Ki (non-renal component of elimination rate constant), mean [6, 7]: 0.060 h⁻¹ | Ks (renal component of elimination rate constant), mean [6, 7]: 0.050 h^−1 per 100 mL/min of CLCR | Kcp (transfer rate constant central to peripheral), median [6, 8]: 0.287 h⁻¹ | Ki (non-renal component of elimination rate constant), median [6, 8]: 0.052 h⁻¹ | Ks (renal component of elimination rate constant), median [6, 8]: 0.045 h^−1 per 100 mL/min of CLCR | V1 (central volume of distribution), mean ([6]; population parameter, learning dataset n = 81, Pmetrics estimation, mean): 6.90 L per 70 kg | V1 (central volume of distribution), median ([6]; population parameter, learning dataset n = 81, Pmetrics estimation, median): 7.18 L per 70 kg
